# Assays:
# Assay in all cases: fluorescence turn-on, 625 nm
# [1] = tested on: ssDNAmix (DNA, single strand) ATGCTCAGACTGTCAGAGTC; conditions: BPC1 1 μM, oligonucleotide 4 μM; weak fluorescence enhancement
# [2] = tested on: ssRNAmix (RNA, single strand) AUGUACCUAGUCUGACCUAG; conditions: BPC1 1 μM, oligonucleotide 4 μM; no fluorescence increase
# [3] = tested on: dsDNAmix (DNA, duplex) CGATAAGCGCTTATCGAGTCGACTCGATAAGCGCTTATCG; conditions: BPC1 1 μM, oligonucleotide 4 μM; significant fluorescence enhancement
# [4] = tested on: NC (RNA, single strand) UUGUACUACACAAAAGUACUG; conditions: BPC1 1 μM, oligonucleotide 4 μM; no fluorescence increase
compound,measurement,setting,value
CC[n+]1c(/C=C/C=C2C=CN(c3ccccc3)C=C2)sc2ccccc21,binding,[1],weak
same,binding,[2],no
same,binding,[3],yes
same,binding,[4],no
